According to PMC12267056 (Nature, 2025):
Several values for one entry are separate records, joined by “and”; a condition that tells them apart may be missing. Equal values may be shown once. Read-outs that look alike come from different tables or passages of the source.

Tests used:
Parameters in all cases: made in house; host or cells: Saccharomyces cerevisiae FGY217
[1] = target: T1, human SLC35B1 (wild type) (Homo sapiens, UniProt P78383); experiment: Competitive uptake assay: [3H]ADP uptake with 1 mM cold nucleotide; type: biochemical; conditions: for Normalized SLC35B1-mediated uptake of [3H]ADP in competition with cold nucleotide: 1 mM external cold nucleotide, proteoliposomes preloaded with 1 mM ATP; for [3H]ADP uptake in the presence of cold competitor nucleotide (individual replicates; no-competitor control about 100): competitor 1mM, sheet ED 6F, SLC35B1 proteoliposomes
T1 sequence (P78383 1-322): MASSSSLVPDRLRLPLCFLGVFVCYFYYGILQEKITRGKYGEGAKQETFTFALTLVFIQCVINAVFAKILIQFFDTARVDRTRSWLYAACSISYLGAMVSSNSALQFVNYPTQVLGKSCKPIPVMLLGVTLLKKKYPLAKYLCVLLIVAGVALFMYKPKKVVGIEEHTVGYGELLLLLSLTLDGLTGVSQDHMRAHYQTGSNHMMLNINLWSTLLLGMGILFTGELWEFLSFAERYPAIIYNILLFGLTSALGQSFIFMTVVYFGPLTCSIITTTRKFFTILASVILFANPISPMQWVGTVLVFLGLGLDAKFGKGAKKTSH

[2] = target: T1, human SLC35B1 (wild type); type: binding; conditions: for ΔTm (average melting temperature increase) / ΔTm, individual titrations (source data): 1 mM nucleotide; for ΔTm (average melting temperature increase): purified wild-type SLC35B1–GFP; for ΔTm, individual titrations (source data): wild-type SLC35B1–GFP; for GFP fluorescence after heating (source data Fig 1B): 1 mM substrate
[3] = target: T1, human SLC35B1 (wild type); experiment: STD NMR of nucleotide interaction with SLC35B1 proteoliposomes; type: binding; conditions: for Total STD amplification factor (STD NMR signal): 500 μM substrate
[4] = target: T1, human SLC35B1 (wild type); experiment: Uptake of [3H]ATP or [3H]ADP into nucleotide-preloaded SLC35B1 proteoliposomes; type: biochemical; conditions: for Single time point (1 min) uptake of [3H]-ADP by proteoliposomes preloaded with the nucleotide: preload 1 mM of the labelled nucleotide; for radiolabelled nucleotide uptake into proteoliposomes preloaded with the named nucleotide (individual replicates; ATP-loaded about 100): 2 minutes, sheet ED 6G, internal (preloaded) nucleotide as labelled; for [3H]ADP import with nucleotide preloading, relative to ATP preloading: liposomes preloaded with 1 mM nucleotide
[5] = target: T1, human SLC35B1 (wild type); experiment: IC50 for competitive inhibition of [3H]ADP uptake in proteoliposomes; type: biochemical; conditions: for IC50: wild-type SLC35B1 proteoliposomes
[6] = external cold nucleotide 100 uM

SMILES: Nc1ccn([C@@H]2O[C@H](COP(=O)(O)OP(=O)(O)O)[C@@H](O)[C@H]2O)c(=O)n1 [CDP]
- Normalized SLC35B1-mediated uptake of [3H]ADP in competition with cold nucleotide [1]: more effective at competition
- [3H]ADP uptake in the presence of cold competitor nucleotide (individual replicates; no-competitor control about 100) [1]: 1.97 and 2.619 and 2.963 and 13.22 and 12.328 and 14.044

SMILES: Nc1ncnc2c1ncn2[C@@H]1O[C@H](COP(=O)(O)O)[C@@H](O)[C@H]1O [AMP, adenosine monophosphate]
- ΔTm (average melting temperature increase) [2]: 1.1 °C
- ΔTm, individual titrations (source data) [2]: 1.3 and 1.29 and 0.78
- GFP fluorescence after heating (source data Fig 1B) ([2]; temperature 4): 106.601 and 104.432 and 95.3539 and 89.0072 and 98.5673 and 95.7555
- GFP fluorescence after heating (source data Fig 1B) ([2]; temperature 10): 120.178 and 88.2039 and 92.06 and 93.2651
- GFP fluorescence after heating (source data Fig 1B) ([2]; temperature 20): 106.039 and 98.5673 and 92.7027 and 90.0516 and 90.7747 and 95.3539
- GFP fluorescence after heating (source data Fig 1B) ([2]; temperature 30): 90.132 and 77.6476 and 78.8286 and 77.1736 and 79.5837 and 81.6163
- GFP fluorescence after heating (source data Fig 1B) ([2]; temperature 40): 21.7011 and 19.6043 and 15.5232 and 15.3143 and 15.5553 and 16.68
- GFP fluorescence after heating (source data Fig 1B) ([2]; temperature 50): 5.771 and 5.947 and 3.195 and 3.312 and 3.387 and 3.526

SMILES: Nc1ncnc2c1ncn2[C@@H]1O[C@H](COP(=O)(O)OP(=O)(O)NP(=O)(O)O)[C@@H](O)[C@H]1O [AMP–PNP, adenylyl imidodiphosphate]
- 1H integral (off-resonance spectrum) [3]: 2.67E+09
- STD integral [3]: 3.83E+08
- Total STD amplification factor (STD NMR signal) [3]: equivalent
- Total STD amplification factor (STD NMR signal) ([3]; listed as AMP-PNP): 7.167
- Single time point (1 min) uptake of [3H]-ADP by proteoliposomes preloaded with the nucleotide [4]: equivalent
- Single time point (1 min) uptake of [3H]-ADP by proteoliposomes preloaded with the nucleotide ([4]; listed as AMP-PNP): 7.11 and 6.164 and 6.553
- Normalized [3H]-ADP uptake activity (IC50 curve) ([5]; external cold nucleotide 0.01 uM, listed as ANP-PNP): 99.81 and 108.605 and 100.75 and 104.879 and 96.5643 and 94.0286
- Normalized [3H]-ADP uptake activity (IC50 curve) ([5]; external cold nucleotide 0.1 uM, listed as ANP-PNP): 114.525 and 102.005 and 84.315 and 93.8643 and 84.5 and 91.8286
- Normalized [3H]-ADP uptake activity (IC50 curve) ([5]; external cold nucleotide 1 uM, listed as ANP-PNP): 100.22 and 103.765 and 80.9 and 74.0571 and 74.9429

SMILES: Nc1ncnc2c1ncn2[C@@H]1O[C@H](COP(=O)(O)OP(=O)(O)OP(=O)(O)O)[C@@H](O)[C@H]1O [[^3H]ATP]
- One-minute uptake of [3H]ATP by SLC35B1 proteoliposomes ([4]; Unloaded (preloaded with buffer)): 0.4851

SMILES: O=c1ccn([C@@H]2O[C@H](COP(=O)(O)OP(=O)(O)OP(=O)(O)O)[C@@H](O)[C@H]2O)c(=O)[nH]1 [UTP, uridine triphosphate]
- IC50 [5]: 29 µM and 29.1 µM

SMILES: O=c1ccn([C@@H]2O[C@H](CO[P@@](=O)(O)O[P@@](=O)(O)OP(=O)(O)O)[C@@H](O)[C@H]2O)c(=O)[nH]1 (stereo in doubt) [UTP, uridine triphosphate]
- radiolabelled nucleotide uptake into proteoliposomes preloaded with the named nucleotide (individual replicates; ATP-loaded about 100) [4]: 26.76 and 31.4277 and 36.8954 and 31.1375 and 33.6917 and 28.9625
- [3H]ADP import with nucleotide preloading, relative to ATP preloading [4]: approximately 30%
- Normalized SLC35B1-mediated uptake of [3H]ADP in competition with cold nucleotide [1]: strong competition
- [3H]ADP uptake in the presence of cold competitor nucleotide (individual replicates; no-competitor control about 100) [1]: 11.6037 and 12.7556 and 12.0037 and 16.836 and 18.152 and 16.556
- Normalized [3H]-ADP uptake activity (IC50 curve) ([5]; external cold nucleotide 0.1 uM, 0.1 µM): 98.9492 and 98.9864
- activity at 0.1 µM ([5]; external cold nucleotide 0.1 uM, read-out: Normalized [3H]-ADP uptake activity (IC50 curve)): 102%
- Normalized [3H]-ADP uptake activity (IC50 curve) ([5]; external cold nucleotide 1 uM, 1 µM): 96.2847 and 99.2915
- activity at 1 µM ([5]; external cold nucleotide 1 uM, read-out: Normalized [3H]-ADP uptake activity (IC50 curve)): 90.8%
- Normalized [3H]-ADP uptake activity (IC50 curve) ([5]; external cold nucleotide 10 uM, 10 µM): 69.0203 and 73.0881
- activity at 10 µM ([5]; external cold nucleotide 10 uM, read-out: Normalized [3H]-ADP uptake activity (IC50 curve)): 65%
- Normalized [3H]-ADP uptake activity (IC50 curve) ([5]; external cold nucleotide 100 uM, 100 µM): 29.139 and 27.9119
- activity at 100 µM ([5]; external cold nucleotide 100 uM, read-out: Normalized [3H]-ADP uptake activity (IC50 curve)): 28.6%

SMILES: O=c1ccn([C@@H]2O[C@H](COP(=O)(O)OP(=O)(O)O)[C@@H](O)[C@H]2O)c(=O)[nH]1 [UDP, uridine diphosphate]
- Normalized SLC35B1-mediated uptake of [3H]ADP in competition with cold nucleotide [1]: more effective at competition
- [3H]ADP uptake in the presence of cold competitor nucleotide (individual replicates; no-competitor control about 100) [1]: 0.8481 and 1.885 and 1.122 and 21.524 and 20.444 and 14.96

SMILES: Nc1nc2c(ncn2[C@@H]2O[C@H](COP(=O)(O)OP(=O)(O)OP(=O)(O)O)[C@@H](O)[C@H]2O)c(=O)[nH]1 [GTP]
- ΔTm (average melting temperature increase) [2]: poor thermostabilization
- ΔTm, individual titrations (source data) [2]: 1.35 and 2.4 and 1.45
- 1H integral (off-resonance spectrum) [3]: 4.09E+10
- STD integral [3]: 2.66E+09
- Total STD amplification factor (STD NMR signal) [3]: low STD NMR signals
- Normalized SLC35B1-mediated uptake of [3H]ADP in competition with cold nucleotide [1]: only weak competition
- [3H]ADP uptake in the presence of cold competitor nucleotide (individual replicates; no-competitor control about 100) [1]: 82.2279 and 86.0047 and 83.9395 and 58.276 and 54.036 and 48.82
- Normalized [3H]-ADP uptake activity (IC50 curve) ([5]; external cold nucleotide 1 uM): 88.1 and 101.287 and 103.95
- Normalized [3H]-ADP uptake activity (IC50 curve) ([5]; external cold nucleotide 10 uM): 84.475 and 90.925 and 119.487
- Normalized [3H]-ADP uptake activity (IC50 curve) [5, 6]: 92.075 and 105.213 and 83.1625
- Normalized [3H]-ADP uptake activity (IC50 curve) ([5]; external cold nucleotide 1000 uM): 48.75 and 67.325 and 73.7625
- Normalized [3H]-ADP uptake activity (IC50 curve) ([5]; external cold nucleotide 100000 uM): 2.4125 and 1.7125 and 1.675
- IC50 [5]: 3500 µM

SMILES: Nc1ccn([C@@H]2O[C@H](COP(=O)(O)OP(=O)(O)OP(=O)(O)O)[C@@H](O)[C@H]2O)c(=O)n1 [CTP, cytidine triphosphate]
- ΔTm, individual titrations (source data) [2]: 2.66 and 3.39 and 2.37
- radiolabelled nucleotide uptake into proteoliposomes preloaded with the named nucleotide (individual replicates; ATP-loaded about 100) [4]: 34.7169 and 32.8215 and 35.0431 and 28.1 and 30.3083 and 22.2
- [3H]ADP import with nucleotide preloading, relative to ATP preloading [4]: approximately 30%
- Normalized SLC35B1-mediated uptake of [3H]ADP in competition with cold nucleotide [1]: strong competition
- [3H]ADP uptake in the presence of cold competitor nucleotide (individual replicates; no-competitor control about 100) [1]: 12.014 and 11.0419 and 12.1535 and 17.168 and 20.672 and 19.484
- Normalized [3H]-ADP uptake activity (IC50 curve) ([5]; external cold nucleotide 0.1 uM): 103.844 and 97.7104 and 98.4453
- Normalized [3H]-ADP uptake activity (IC50 curve) ([5]; external cold nucleotide 1 uM): 95.8764 and 97.0509 and 95.3887
- Normalized [3H]-ADP uptake activity (IC50 curve) ([5]; external cold nucleotide 10 uM): 67.7481 and 70.5094 and 62.095
- Normalized [3H]-ADP uptake activity (IC50 curve) [5, 6]: 15.0773 and 20.2633 and 19.2811
- IC50 [5]: 21 µM
